Patent publication US20120214847A1, “2-[1-PHENYL-5-HYDROXY-4a-SUBSTITUTED-HEXAHYDROCYCLOPENTA[F]INDAZOL-5-YL]ETHYL PHENYL DERIVATIVES AS GLUCOCORTICOID RECEPTOR LIGANDS” (Merck Sharp & Dohme Corp., priority 2009, published 2012)

Target: T1, glucocorticoid receptor (Homo sapiens, UniProt P04150)
T1 construct: endogenous in cells; host or cells: HeLa (ATCC) cell lysate supernatant
T1 sequence (P04150 1-777): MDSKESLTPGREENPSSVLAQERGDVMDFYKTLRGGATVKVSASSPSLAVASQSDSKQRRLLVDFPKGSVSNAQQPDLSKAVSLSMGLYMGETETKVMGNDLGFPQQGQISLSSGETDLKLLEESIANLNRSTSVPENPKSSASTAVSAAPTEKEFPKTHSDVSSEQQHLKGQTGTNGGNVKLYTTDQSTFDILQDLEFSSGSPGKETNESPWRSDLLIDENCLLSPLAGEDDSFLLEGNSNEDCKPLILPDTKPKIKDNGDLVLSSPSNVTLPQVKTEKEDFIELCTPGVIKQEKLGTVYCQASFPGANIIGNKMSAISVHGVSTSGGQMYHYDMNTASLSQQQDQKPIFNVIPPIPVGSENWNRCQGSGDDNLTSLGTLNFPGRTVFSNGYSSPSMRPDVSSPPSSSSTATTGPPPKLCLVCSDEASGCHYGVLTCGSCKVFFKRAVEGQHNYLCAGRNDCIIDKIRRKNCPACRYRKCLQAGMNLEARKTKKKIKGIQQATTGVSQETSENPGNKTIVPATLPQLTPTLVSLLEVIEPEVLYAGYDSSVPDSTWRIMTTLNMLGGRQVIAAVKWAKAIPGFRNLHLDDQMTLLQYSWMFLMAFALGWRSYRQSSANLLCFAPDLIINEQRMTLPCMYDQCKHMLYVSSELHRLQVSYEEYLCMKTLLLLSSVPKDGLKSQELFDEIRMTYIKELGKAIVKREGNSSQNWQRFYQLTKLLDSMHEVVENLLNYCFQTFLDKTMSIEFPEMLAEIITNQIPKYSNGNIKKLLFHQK
Assay: Ligand binding assay (GRBind), 3H-dexamethasone displacement in HeLa cell lysate
Settings: 3H-DEX tracer
Protocol: Binding Buffer: TEGM (10 mM Tris-HCl, 1 mM EDTA, 10% glycerol, 1 mM betamecaptoethanol, 10 mM Sodium Molybdate, pH 7.2)
50% HAP Slurry: Calbiochem Hydroxylapatite, Fast Flow, in 10 mM Tris, pH 8.0 and 1 mM EDTA.
Wash Buffer: 40 mM Tris, pH7.5, 100 mM KCl, 1 mM EDTA and 1 mM EGTA. 95% EtOH Dexmethasone-methyl-3H, (DEXA*); (Amersham cat#TRK645) Dexamethasone(DEX) (Sigma, cat#01756):
Hydroxylapatite Fast Flow; Calbiochem Cat#391947
25 Molybdate=Molybdic Acid (Sigma, M1651)
5 Cells (Hall R. E., et al., European Journal of Cancer, 30A: 484-490 (1994)) HeLa (ATCC) cultured in RPMI 1640 (Gibed 11835-055) containing 20 mM Hepes, 4 mM L-glu, 10 ug/ml of human insulin (Sigma, 1-0259), 10% FBS and 20 uglml of Gentamicin (Gibco#15710072) are rinsed twice in PBS. Phenol red-free Trypsin-EDTA is diluted in the same PBS 1:10. The cell layers are rinsed with IX Trypsin, extra Trypsin is poured out, and the cell layers are incubated at 37° C. for 2 min. The flask is tapped and checked for signs of cell detachment. Once the cells begin to slide off the flask, the complete media is added. The cells are counted at this point, then diluted to the appropriate concentration and split into flasks or dishes for further culturing (Usually 1:3 to 1:6 dilution).
Preparation of HeLa Cell Lysate
When the cells are 70 to 85% confluent, they are detached as described above, and collected by centrifuging at 1000 g for 10 min at 4° C. The cell pellet is washed twice with TEGM (10 mM Tris-HCl, 1 mM EDTA, 10% glycerol, 1 mM beta-mercaptoethanol, 10 mM Sodium Molybdate, pH 7.2). After the final wash, the cells are resuspended in TEGM at a concentration of 10^7 cells/mL. The cell suspension is snap frozen in liquid nitrogen or ethanol/dry ice bath and transferred to −80° C. freezer on dry ice. Before setting up the binding assay, the frozen samples are left on ice-water to just thaw. Then the samples are centrifuged at 12,500 g to 20,000 g for 30 min at 4° C. The supernatant is used to set-up assay right away. If using 50 μL of supernatant, the test compound can be prepared in 50 μL of the TEGM buffer.
Procedure for Multiple Compound Screening
1×TEGM buffer is prepared, and the isotope-containing assay mixture is prepared in the following order: EtOH (2% final concentration in reaction), 3H-DEX (Amersham Biosciences) and 1×TEGM. [e.g. For 100 samples, 200 JlL (100×2) of EtOH+4.25 JlL of 1:10 ^3H-Dex stock+2300 μL (100×23) 1×TEGM]. The compound is serially diluted, e.g., if starting final conc. is 1 μM, and the compound is in 25 μL of solution, for duplicate samples, 75 μL of 4×1 μM solution is made and 3 μL of 100). 1M is added to 72 μL of buffer, and 1:5 serial dilution.
25 μL of ^3H-DEX (6 nM) trace and 25 μL, compound solution are first mixed together, followed by addition of 50 μL receptor solution. The reaction is gently mixed, spun briefly at about 200 rpm and incubated at 4° C. overnight. 100 μL of 50% HAP slurry is prepared and added to the incubated reaction which is then vortexed and incubated on ice for 5 to 10 min. The reaction mixture is vortexed twice more to resuspend HAP while incubating reaction. The samples in 96-well format are then washed in wash buffer using the FilterMate™ Universal Harvester plate washer (Packard). The washing process transfers HAP pellet containing ligand-bound expressed receptor to Unifilter-96 GFIB filter plate (Packard). The HAP pellet on the filter plate is incubated with […] of MICROSCINT (Packard) scintillant for 30 min before being counted on the TopCount microscintillation counter (Packard). IC50s are calculated using DEX as a reference.

Row | SMILES | Ki [nM]
1 | CC[C@]12Cc3cnn(-c4cccnc4)c3C=C1CC[C@@]2(O)CCc1ccccc1C(N)=O [Example 13, 2-{2-[(4aS,5R)-4a-Ethyl-5-hydroxy-1-(pyridin-3-yl)-1,4,4a,5,6,7-hexahydrocyclopenta[f]indazol-5-yl]ethyl}benzamide] | 28.4
2 | CC[C@]12Cc3cnn(-c4ccc(F)cc4)c3C=C1CC[C@@]2(O)CCc1cccc(F)c1CC(N)=O [Example 60, 2-(2-{2-[(4aS,5R)-4a-Ethyl-1-(4-fluorophenyl)-5-hydroxy-1,4,4a,5,6,7-hexahydrocyclopenta[f]indazol-5-yl]ethyl}-6-fluorophenyl)acetamide] | 2.33
3 | NC(=O)c1cccnc1CC[C@]1(O)CCC2=Cc3c(cnn3-c3ccc(F)cc3)C[C@@]21C1CC1 [Example 1, 2-{2-[(4aR,5R)-4a-Cyclopropyl-1-(4-fluorophenyl)-5-hydroxy-1,4,4a,5,6,7-hexahydrocyclopenta[f]indazol-5-yl]ethyl}pyridine-3-carboxamide] | 4.51
4 | COc1ccnc(CC[C@]2(O)CCC3=Cc4c(cnn4-c4ccc(F)cc4)C[C@@]32C2CC2)c1C(N)=O [Example 54, 2-{2-[(4aR,5R)-4a-Cyclopropyl-1-(4-fluorophenyl)-5-hydroxy-1,4,4a,5,6,7-hexahydrocyclopenta[f]indazol-5-yl]ethyl}-4-methoxypyridine-3-carboxamide] | 2.44
5 | NC(=O)c1ccccc1CC[C@]1(O)CCC2=Cc3c(cnn3-c3cccc(F)c3)C[C@@]21C1CC1 [Example 7, 2-{2-[(4aR,5R)-4a-Cyclopropyl-1-(3-fluorophenyl)-5-hydroxy-1,4,4a,5,6,7-hexahydrocyclopenta[f]indazol-5-yl]ethyl}benzamide] | 3.22
6 | NC(=O)C(O)c1ccccc1CC[C@]1(O)CCC2=Cc3c(cnn3-c3ccc(F)cc3)C[C@@]21C1CC1 (single isomer, unassigned) [Example 3b] | 1.79
7 | NC(=O)Cc1ccccc1CC[C@]1(O)CCC2=Cc3c(cnn3-c3ccc(F)cc3)C[C@@]21C1CC1 [Example 56, 2-(2-{2-[(4aR,5S)-4a-Cyclopropyl-1-(4-fluorophenyl)-5-hydroxy-1,4,4a,5,6,7-hexahydrocyclopenta[f]indazol-5-yl]ethyl}phenyl)acetamide] | 1.61
8 | OC(C[C@]1(O)CCC2=Cc3c(cnn3-c3ccc(F)cc3)C[C@@]21C1CC1)c1ccccn1 (stereo partly drawn) [Example 78, (4aR,5R)-4a-Cyclopropyl-1-(4-fluorophenyl)-5-[2-hydroxy-2-(pyridin-2-yl)ethyl]-1,4,4a,5,6,7-hexahydrocyclopenta[f]indazol-5-ol] | 2.96
9 | CC[C@]12Cc3cnn(-c4ccc(F)cc4)c3C=C1CC[C@@]2(O)CCc1ccc(F)cn1 [Example 19, (4aS,5R)-4a-Ethyl-1-(4-fluorophenyl)-5-[2-(5-fluoropyridin-2-yl)ethyl]-1,4,4a,5,6,7-hexahydrocyclopenta[f]indazol-5-ol] | 2.52
10 | NC(=O)CNC(=O)c1cc(F)cnc1CC[C@]1(O)CCC2=Cc3c(cnn3-c3ccc(F)cc3)C[C@@]21C1CC1 [Example 44, N-(2-Amino-2-oxoethyl)-2-{2-[(4aR,5R)-4a-cyclopropyl-1-(4-fluorophenyl)-5-hydroxy-1,4,4a,5,6,7-hexahydrocyclopenta[f]indazol-5-yl]ethyl}-5-fluoropyridine-3-carboxamide] | 4.6
11 | N#Cc1c(F)cccc1CC[C@]1(O)CCC2=Cc3c(cnn3-c3ccccc3)C[C@@]21C1CC1 [Example 28, 2-{2-[(4aR,5R)-4a-Cyclopropyl-5-hydroxy-1-phenyl-1,4,4a,5,6,7-hexahydrocyclopenta[f]indazol-5-yl]ethyl}-6-fluorobenzonitrile] | 1.24
12 | NC(=O)c1ccccc1CC[C@]1(O)CCC2=Cc3c(cnn3-c3ccccc3)C[C@@]21C1CC1 [Example 29, 2-{2-[(4aR,5R)-4a-Cyclopropyl-5-hydroxy-1-phenyl-1,4,4a,5,6,7-hexahydrocyclopenta[f]indazol-5-yl]ethyl}benzamide] | 2.29
13 | NC(=O)c1cc(F)ccc1CC[C@]1(O)CCC2=Cc3c(cnn3-c3ccc(F)cc3)C[C@@]21C1CC1 [Example 39, 2-{2-[(4aR,5R)-4a-Cyclopropyl-1-(4-fluorophenyl)-5-hydroxy-1,4,4a,5,6,7-hexahydrocyclopenta[f]indazol-5-yl]ethyl}-5-fluorobenzamide] | 1.98
14 | CC[C@]12Cc3cnn(-c4ccc(F)cc4)c3C=C1CC[C@@]2(O)CC(O)c1c(F)ccnc1Cl (stereo partly drawn) [Example 74, (4aS,5R)-5-[2-(2-Chloro-4-fluoropyridin-3-yl)-2-hydroxyethyl]-4a-ethyl-1-(4-fluorophenyl)-1,4,4a,5,6,7-hexahydrocyclopenta[f]indazol-5-ol] | 9.35
15 | CC[C@]12Cc3cnn(-c4ccc(F)cc4)c3C=C1CC[C@@]2(O)CC(O)c1ccc(F)cn1 (single isomer, unassigned) [Example 69a] | 4.41
16 | COc1ccnc(CC[C@]2(O)CCC3=Cc4c(cnn4-c4ccc(F)cc4)C[C@@]32C2CC2)c1C(F)C(N)=O (stereo partly drawn) [Example 66, 2-(2-{2-[(4aR,5R)-4a-Cyclopropyl-1-(4-fluorophenyl)-5-hydroxy-1,4,4a,5,6,7-hexahydrocyclopenta[f]indazol-5-yl]ethyl}-4-methoxypyridin-3-yl)-2-fluoroacetamide] | 1.82
17 | CC[C@]12Cc3cnn(-c4ccc(F)cc4)c3C=C1CC[C@@]2(O)CCc1ncc(F)cc1C(N)=O [Example 53, 2-{2-[(4aS,5R)-4a-Ethyl-1-(4-fluorophenyl)-5-hydroxy-1,4,4a,5,6,7-hexahydrocyclopenta[f]indazol-5-yl]ethyl}-5-fluoropyridine-3-carboxamide] | 5.97
18 | CC[C@]12Cc3cnn(-c4cccnc4)c3C=C1CC[C@@]2(O)CCc1cccc(F)c1C(N)=O [Example 14, 2-{2-[(4aS,5R)-4a-Ethyl-5-hydroxy-1-(pyridin-3-yl)-1,4,4a,5,6,7-hexahydrocyclopenta[f]indazol-5-yl]ethyl}-6-fluorobenzamide] | 8.68
19 | CC[C@]12Cc3cnn(-c4cccnc4)c3C=C1CC[C@@]2(O)CCc1ccc(F)cc1C#N [Example 9, 2-{2-[(4aS,5R)-4a-Ethyl-5-hydroxy-1-(pyridin-3-yl)-1,4,4a,5,6,7-hexahydrocyclopenta[f]indazol-5-yl]ethyl}-5-fluorobenzonitrile] | 1.99
